Results on 8 molecules are retold here after patent US20240301218A1, “Polymeric Antifouling Coating with Antimicrobial Peptides” (THE UNIVERSITY OF BRITISH COLUMBIA, priority 2021, published 2024).

Values after ≈ are worked out from the molar mass of the structure shown. Read-outs that look alike come from different tables or passages of the source. Residues, ends and D or L forms follow the SMILES beside them. No end group written: not given here.

One experiment deals with S. aureus. An excerpt: (§1) Ultra-high molecular weight poly(N,N-dimethylacrylamide) (uhPDMA) and high molecular weight poly(N,N-dimethylacrylamide) (hPDMA) were synthesized by atom transfer radical polymerization 391. N-(3-Aminopropyl) methacrylamide hydrochloride (APMA) (98%) was purchased from Polysciences™, USA and was used as supplied. All other reagents including 1, 1, 4, 7, 10, 10-hexamethyl triethylene tetramine (HMTETA) (97%), Tris[2-(dimethylamino)ethyl]amine (Me6TREN) 97%, methyl 2-chloropropionate (97%), CuCl (99%), CuCl2 (99%), 1-thioglycerol (97%) were purchased from Sigma-Aldrich™ (Oakville, ON). A single-side-polished silicon wafer (University Wafer™, Boston, MA) deposited with titanium was prepared by e-beam evaporation of titanium. The process was progressed in a home-assembled Evaporator 2000™ system equipped with a quartz crystal microbalance to monitor the film thickness and a cryo pump to reach high-vacuum (10^−7-10^−6 Torr) condition. After deposition, the substrates were washed with Milli-Q water™, dried via a nitrogen gun, and stored for further usage. SurFlash™I.V. Catheter Cat. #SR*FF1451, #SR*FF2419 (14 Gauge and 24 Gauge) made of polyurethane (PU), were purchased from Terumo™. […] Pure products were finally characterized by analytical reverse phase high performance liquid chromatography (RP-HPLC) and liquid chromatography-mass spectrometry (LC-MS). The broth microdilution method with minor modifications for cationic peptides was used for measuring the MICs of peptides.

Another experiment concerns P. aeruginosa.
Excerpt: as §1

A further experiment has as its system S. saprophyticus.
Excerpt: as §1

The next experiment deals with E. coli.
Excerpt: as §1

The test system of another experiment is S. aureus (Xen36). The experiment is described as follows: 96-well plate screening of surface conjugated AMPs for biofilm inhibition. In kind it is cell-based. To be noted: AMP tethered on BA coating, polypropylene 96-well plate, vs uncoated pp. As for the experimental part:
(§2) Screening and Identification of Surface Conjugated AMPs with Anti-Biofilm Activity on a 96-Well Plate Bioluminescence-tagged bacterial strains used in this study included S. aureus (Xen36), P. aeruginosa (PAO1.lux), E. coli (E38.lux), and S. saprophyticus (ATCC 15305). Bacteria were cultured in LB, with shaking at 250 rpm, at 37° C. Bacterial growth was monitored using a spectrophotometer at the optical density of 600 nm (OD600). S. aureus Xen36 was purchased from PerkinElmer Inc.™ while P. aeruginosa PAO1.lux and E. coli E38.lux were generated by conjugating in plasmids that constitutively-expressed lux reporter genes^[40]. The biofilm inhibitory activity of AMPs conjugated onto coated polypropylene surfaces were evaluated in a static microtitre plate assay as previously described with some modifications^[41]. For all experiments, 96-well Costar™ polypropylene plates (Corning™) were used. An overnight culture of selected bacterial strains in LB was diluted to an OD600=0.01 in TSB or basal medium 2 (BM2) supplemented with 0.1% or 0.4% glucose and 0.5 mM MgSO4, (the biofilm growth medium for different bacteria is listed in TABLE 1).
(§3) For inhibition experiments, 100 μL of the diluted overnight culture was added to each well in the plate coated with control coating and AMP coating, respectively. After overnight growth under static condition at 37° C., planktonic cells were removed, adhered biomass rinsed three times with distilled water and subsequently the remaining adhered total biomass was quantified by measuring the luminescence (Total white light) using the Synergy H1™ multimode microtitre plate reader (BioTek™). The remaining adhered S. saprophyticus biomass was quantified using the crystal violet (CV) staining. Briefly, each well was added and incubated with 125 μL of 0.1% (v/v) CV solution for 30 minutes at room temperature with moderate shaking. Then, CV was discarded, and each well was rinsed three times with distilled water. The remaining CV stain was resuspended in 150 μL of 70% ethanol for 30 minutes at room temperature with moderate shaking and then quantified by measuring OD59, using the Synergy H1™ multimode microplate plate reader (BioTek™). The percent biofilm inhibition was calculated in relation to the amount of biofilm grown in the absence of the coating (defined as 100%) and the media sterility control (defined as 0% growth). The experiment was repeated 3 times with 3 technical replicates per biological replicate.

For experiment [1], the system named is S. saprophyticus (ATCC 15305). Described as above. It counts as cell-based. To be noted: AMP tethered on BA coating, polypropylene 96-well plate, 24 h, vs uncoated pp. The method, then:
as §2, §3

The test system of a further experiment is P. aeruginosa (PAO1.lux). Described as above. In kind it is cell-based. Conditions: AMP tethered on BA coating, polypropylene 96-well plate, vs uncoated pp. The method, then:
as §2, §3

Regarding `CC[C@@H](C)[C@@H](NC(=O)[C@@H](C)NC(=O)[C@@H](CCCNC(=N)N)NC(=O)[C@@H](Cc1c[nH]c2ccccc12)NC(=O)[C@@H](CCC(N)=O)NC(=O)[C@H](N)C(C)C)C(=O)N[C@H](CCCNC(=N)N)C(=O)N[C@@H](C(=O)N[C@H](CCCNC(=N)N)C(=O)N[C@@H](C(=O)N[C@@H](C(=O)N[C@H](CCCNC(=N)N)C(N)=O)[C@H](C)CC)C(C)C)C(C)C` [DJK5, vqwrairvrvir] (HELM PEPTIDE1{[dV].[dQ].[dW].[dR].[dA].[dI].[dR].[dV].[dR].[dV].[dI].[dR].[am]}$$$$V2.0; N-terminus assumed), the “MIC S. aureus” value with S. aureus amounted to 16 µg/mL (≈ 10.3 µM). Also, the “MIC P. aeruginosa” value with P. aeruginosa was 16 µg/mL (≈ 10.3 µM). For the same molecule, the “MIC S. saprophyticus” value in the experiment on S. saprophyticus came out at 2 µg/mL (≈ 1.29 µM). Moreover, the “MIC E. coli” value against E. coli is 1.6 µg/mL (≈ 1.03 µM). Also, the “reduction of biofilm formation” value in the experiment on S. aureus (Xen36) amounted to 90.5%; in experiment [1] it was 83.4%.

Take `CC[C@@H](C)[C@@H](NC(=O)[C@@H](C)NC(=O)[C@@H](CCCNC(=N)N)NC(=O)[C@@H](Cc1c[nH]c2ccccc12)NC(=O)[C@@H](CCC(N)=O)NC(=O)[C@H](N)C(C)C)C(=O)N[C@H](CCCNC(=N)N)C(=O)N[C@@H](C(=O)N[C@H](CCCNC(=N)N)C(=O)N[C@@H](C(=O)N[C@@H](C(=O)N[C@H](CCCNC(=N)N)C(=O)N[C@H](CS)C(N)=O)[C@H](C)CC)C(C)C)C(C)C` [DJK5C, vqwrairvrvirc-NH2] (HELM PEPTIDE1{[dV].[dQ].[dW].[dR].[dA].[dI].[dR].[dV].[dR].[dV].[dI].[dR].[dC].[am]}$$$$V2.0; N-terminus assumed): the “MIC S. aureus” value in the experiment with S. aureus turned out to be 16 µg/mL (≈ 9.67 µM). Further, the “MIC P. aeruginosa” value in the experiment on P. aeruginosa was 16 µg/mL (≈ 9.67 µM). In addition, the “MIC S. saprophyticus” value against S. saprophyticus is 2 µg/mL (≈ 1.21 µM). Besides, the “MIC E. coli” value in the experiment on E. coli stood at 4 µg/mL (≈ 2.42 µM). Further, the “reduction of biofilm formation” value with S. aureus (Xen36) is recorded as 95.1%; in experiment [1], about 100%; in the experiment on P. aeruginosa (PAO1.lux) it was 99.1%.

With `CC[C@H](C)[C@H](NC(=O)[C@H](CCCNC(=N)N)NC(=O)[C@H](Cc1c[nH]c2ccccc12)NC(=O)[C@H](CCCNC(=N)N)NC(=O)[C@@H](N)CCCCN)C(=O)N[C@@H](CCCNC(=N)N)C(=O)N[C@H](C(=O)N[C@@H](CCCNC(=N)N)C(=O)N[C@H](C(=O)N[C@H](C(=O)N[C@@H](CCCNC(=N)N)C(=O)N[C@@H](CCCCN)C(=O)NCCC(=O)NCCC(=O)N[C@@H](CS)C(N)=O)[C@@H](C)CC)C(C)C)C(C)C` [Tet20LC, KRWRIRVRVIRK-bA-bA-C—NH2] (HELM PEPTIDE1{K.R.W.R.I.R.V.R.V.I.R.K.[bAla].[bAla].C.[am]}$$$$V2.0; N-terminus assumed), the “MIC S. aureus” value in the experiment with S. aureus amounted to 64 µg/mL (≈ 33.5 µM). Besides, in the experiment with P. aeruginosa, the “MIC P. aeruginosa” value is 16 µg/mL (≈ 8.38 µM). Besides, in the experiment on S. saprophyticus, the “MIC S. saprophyticus” value stood at 2 µg/mL (≈ 1.05 µM). In the experiment on E. coli, the “MIC E. coli” value was 4 µg/mL (≈ 2.09 µM). In addition, the figures for the “reduction of biofilm formation” value (in the experiment on S. aureus (Xen36); in experiment [1]; in the experiment on P. aeruginosa (PAO1.lux)) were 100%, about 100% and 100%, respectively.

Take “ILVRWIRWRIQWC-NH2 [3002C, ILVRWIRWRIQWC-NH2]”: the “MIC S. aureus” value against S. aureus turned out to be 32 µg/mL. Besides, in the experiment with P. aeruginosa, the “MIC P. aeruginosa” value was found to be 128 µg/mL. In addition, in the experiment on S. saprophyticus, the “MIC S. saprophyticus” value is 8 µg/mL. The “MIC E. coli” value against E. coli is 16 µg/mL. Further, the “reduction of biofilm formation” value is given as 93.6% in the experiment with S. aureus (Xen36) and 32.4% in the experiment on P. aeruginosa (PAO1.lux).

“KRWRIRVRVIRKC-NH2 [Tet20C, KRWRIRVRVIRKC-NH2]”: the “MIC S. aureus” value against S. aureus is 64 µg/mL. For the same molecule, in the experiment with P. aeruginosa, the “MIC P. aeruginosa” value turned out to be 8 µg/mL. For the same molecule, the “MIC S. saprophyticus” value in the experiment with S. saprophyticus stood at 2 µg/mL. Besides, in the experiment on E. coli, the “MIC E. coli” value was determined as 4 µg/mL. For the same molecule, the “reduction of biofilm formation” value in the experiment with S. aureus (Xen36) is 98.8%; in experiment [1], about 100%; with P. aeruginosa (PAO1.lux) it was 99.6%.

For the molecule “VRLIVAVRIWRR-NH2 [IDR-1018, VRLIVAVRIWRR-NH2]”, the “MIC S. aureus” value with S. aureus (soluble peptide) was found to be 16 µg/mL. Moreover, the “MIC P. aeruginosa” value against P. aeruginosa (soluble peptide) was 64 µg/mL. The “MIC S. saprophyticus” value against S. saprophyticus (soluble peptide) is 2 µg/mL. In addition, the “MIC E. coli” value with E. coli (soluble peptide) was determined as 9.3 µg/mL. For the same molecule, the “reduction of biofilm formation” value was 93.5% with S. aureus (Xen36), 82.2% in experiment [1] and 83.2% in the experiment on P. aeruginosa (PAO1.lux).

Consider “rivrvrairwqv (RIVRVRAIRWQV; HELM PEPTIDE1{[dR].[dI].[dV].[dR].[dV].[dR].[dA].[dI].[dR].[dW].[dQ].[dV].[am]}$$$$V2.0; N-terminus assumed; SMILES CC[C@@H](C)[C@@H](NC(=O)[C@H](N)CCCNC(=N)N)C(=O)N[C@@H](C(=O)N[C@H](CCCNC(=N)N)C(=O)N[C@@H](C(=O)N[C@H](CCCNC(=N)N)C(=O)N[C@H](C)C(=O)N[C@@H](C(=O)N[C@H](CCCNC(=N)N)C(=O)N[C@H](Cc1c[nH]c2ccccc12)C(=O)N[C@H](CCC(N)=O)C(=O)N[C@@H](C(N)=O)C(C)C)[C@H](C)CC)C(C)C)C(C)C) [RI-DJK5]”, for which the “reduction of biofilm formation” value with P. aeruginosa (PAO1.lux) was 76.2%.

Regarding “vqwrrirvwvir (VQWRRIRVWVIR; HELM PEPTIDE1{[dV].[dQ].[dW].[dR].[dR].[dI].[dR].[dV].[dW].[dV].[dI].[dR].[am]}$$$$V2.0; N-terminus assumed; SMILES CC[C@@H](C)[C@@H](NC(=O)[C@@H](CCCNC(=N)N)NC(=O)[C@@H](CCCNC(=N)N)NC(=O)[C@@H](Cc1c[nH]c2ccccc12)NC(=O)[C@@H](CCC(N)=O)NC(=O)[C@H](N)C(C)C)C(=O)N[C@H](CCCNC(=N)N)C(=O)N[C@@H](C(=O)N[C@H](Cc1c[nH]c2ccccc12)C(=O)N[C@@H](C(=O)N[C@@H](C(=O)N[C@H](CCCNC(=N)N)C(N)=O)[C@H](C)CC)C(C)C)C(C)C) [DJK6]”, the “reduction of biofilm formation” value amounted to 83.5% in experiment [1] and 58.8% in the experiment on P. aeruginosa (PAO1.lux).
